# Test results published in the supplement of paper PMC10307832.
# Assays:
# Assay in all cases: relative viability (nuclei count vs DMSO), 5 days (fraction); higher = more cells survive
# [1] = compound: C=CC(=O)Nc1cc(-n2c(=O)ccc3cnc4ccc(-c5ccc(NS(C)(=O)=O)cc5)cc4c32)ccc1C [BMX-IN-1] + CS(=O)(=O)N1CCN(Cc2cc3nc(-c4cccc5[nH]ncc45)nc(N4CCOCC4)c3s2)CC1 [Pictilisib] (partner 1 µM)
# Method in brief: (§1)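 One day after seeding in 1536-well plates, lung cancer cell lines were dosed by pin tool. Dosing was either single-drug or a fixed anchor-drug dose plus five library-drug doses (not always all listed) in √10 steps. After 5 days, nuclei were stained in one fix-and-stain step and counted on 4× images, and relative viability is the nuclei count of treated wells over that of vehicle wells, given as the median of duplicate plates.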
# [2] = compound: C=CC(=O)Nc1cc(-n2c(=O)ccc3cnc4ccc(-c5ccc(NS(C)(=O)=O)cc5)cc4c32)ccc1C [BMX-IN-1] + C[C@]1(O)C[C@@H](c2nc(-c3ccc4ccc(-c5ccccc5)nc4c3)c3c(N)nccn32)C1 [Linsitinib] (partner 1 µM)
# Method in brief: as §1
# [3] = compound: C=CCc1cccc(/C=N/NC(=O)CN2CCN(Cc3ccccc3)CC2)c1O [PAC-1] + CC(=O)c1c(C)c2cnc(Nc3ccc(N4CCNCC4)cn3)nc2n(C2CCCC2)c1=O [Palbociclib] (partner 0.5 µM)
# Method in brief: as §1
# [4] = compound: C=CCc1cccc(/C=N/NC(=O)CN2CCN(Cc3ccccc3)CC2)c1O [PAC-1] + Nc1nc2[nH]cc(CCc3ccc(C(=O)N[C@@H](CCC(=O)O)C(=O)O)cc3)c2c(=O)[nH]1 [Pemetrexed] (partner 0.2 µM)
# Method in brief: as §1
cell line,measurement,setting,value
NCI-H1395,relative viability,[1]; first compound 0.02 µM,0.82
same,relative viability,[1]; first compound 0.2 µM,1.02
same,relative viability,[1]; first compound 0.6325 µM,0.701
same,relative viability,[1]; first compound 2 µM,0.61
same,relative viability,[2]; first compound 0.02 µM,0.975
same,relative viability,[2]; first compound 0.2 µM,1
same,relative viability,[2]; first compound 0.6325 µM,1.11
same,relative viability,[2]; first compound 2 µM,1.08
same,relative viability,[3]; first compound 0.02 µM,0.624
same,relative viability,[3]; first compound 0.06325 µM,0.648
same,relative viability,[3]; first compound 0.2 µM,0.593
same,relative viability,[3]; first compound 2 µM,0.572
same,relative viability,[4]; first compound 0.02 µM,0.868
same,relative viability,[4]; first compound 0.06325 µM,0.799
same,relative viability,[4]; first compound 0.2 µM,0.781
same,relative viability,[4]; first compound 2 µM,0.923
NCI-H838,relative viability,[1]; first compound 0.02 µM,0.535
same,relative viability,[1]; first compound 0.2 µM,0.444
same,relative viability,[1]; first compound 0.6325 µM,0.598
same,relative viability,[1]; first compound 2 µM,0.472
same,relative viability,[2]; first compound 0.02 µM,1.19
same,relative viability,[2]; first compound 0.2 µM,1.26
same,relative viability,[2]; first compound 0.6325 µM,1.2
same,relative viability,[2]; first compound 2 µM,1.08
same,relative viability,[3]; first compound 0.02 µM,0.239
same,relative viability,[3]; first compound 0.06325 µM,0.227
same,relative viability,[3]; first compound 0.2 µM,0.22
same,relative viability,[3]; first compound 2 µM,0.229
same,relative viability,[4]; first compound 0.02 µM,0.22
same,relative viability,[4]; first compound 0.06325 µM,0.235
same,relative viability,[4]; first compound 0.2 µM,0.238
same,relative viability,[4]; first compound 2 µM,0.206
NCI-H520,relative viability,[1]; first compound 0.02 µM,0.376
same,relative viability,[1]; first compound 0.2 µM,0.299
same,relative viability,[1]; first compound 0.6325 µM,0.304
same,relative viability,[1]; first compound 2 µM,0.278
same,relative viability,[2]; first compound 0.02 µM,1.09
same,relative viability,[2]; first compound 0.2 µM,1.2
same,relative viability,[2]; first compound 0.6325 µM,1.36
same,relative viability,[2]; first compound 2 µM,1.02
same,relative viability,[3]; first compound 0.02 µM,0.21
same,relative viability,[3]; first compound 0.06325 µM,0.256
same,relative viability,[3]; first compound 0.2 µM,0.179
same,relative viability,[3]; first compound 2 µM,0.268
same,relative viability,[4]; first compound 0.02 µM,0.723
same,relative viability,[4]; first compound 0.06325 µM,0.686
same,relative viability,[4]; first compound 0.2 µM,0.639
same,relative viability,[4]; first compound 2 µM,0.58
SW 1573,relative viability,[1]; first compound 0.02 µM,0.5
same,relative viability,[1]; first compound 0.2 µM,0.512
same,relative viability,[1]; first compound 0.6325 µM,0.466
same,relative viability,[1]; first compound 2 µM,0.478
same,relative viability,[2]; first compound 0.02 µM,0.709
same,relative viability,[2]; first compound 0.2 µM,0.864
same,relative viability,[2]; first compound 0.6325 µM,0.825
same,relative viability,[2]; first compound 2 µM,0.771
same,relative viability,[3]; first compound 0.02 µM,0.381
same,relative viability,[3]; first compound 0.06325 µM,0.292
same,relative viability,[3]; first compound 0.2 µM,0.455
same,relative viability,[3]; first compound 2 µM,0.474
same,relative viability,[4]; first compound 0.02 µM,0.831
same,relative viability,[4]; first compound 0.06325 µM,0.778
same,relative viability,[4]; first compound 0.2 µM,0.83
same,relative viability,[4]; first compound 2 µM,0.855
201T,relative viability,[1]; first compound 0.02 µM,0.752
same,relative viability,[1]; first compound 0.2 µM,0.72
same,relative viability,[1]; first compound 0.6325 µM,0.71
same,relative viability,[1]; first compound 2 µM,0.695
same,relative viability,[2]; first compound 0.02 µM,1.13
same,relative viability,[2]; first compound 0.2 µM,1.02
same,relative viability,[2]; first compound 0.6325 µM,1.04
same,relative viability,[2]; first compound 2 µM,1.01
same,relative viability,[3]; first compound 0.02 µM,0.347
same,relative viability,[3]; first compound 0.06325 µM,0.346
same,relative viability,[3]; first compound 0.2 µM,0.37
same,relative viability,[3]; first compound 2 µM,0.363
same,relative viability,[4]; first compound 0.02 µM,0.316
same,relative viability,[4]; first compound 0.06325 µM,0.303
same,relative viability,[4]; first compound 0.2 µM,0.314
same,relative viability,[4]; first compound 2 µM,0.334
NCI-H1437,relative viability,[1]; first compound 0.02 µM,0.455
same,relative viability,[1]; first compound 0.2 µM,0.391
same,relative viability,[1]; first compound 0.6325 µM,0.425
same,relative viability,[1]; first compound 2 µM,0.462
same,relative viability,[2]; first compound 0.02 µM,1.35
same,relative viability,[2]; first compound 0.2 µM,1.21
same,relative viability,[2]; first compound 0.6325 µM,1.14
same,relative viability,[2]; first compound 2 µM,1.03
same,relative viability,[3]; first compound 0.02 µM,0.298
same,relative viability,[3]; first compound 0.06325 µM,0.35
same,relative viability,[3]; first compound 0.2 µM,0.355
same,relative viability,[3]; first compound 2 µM,0.307
same,relative viability,[4]; first compound 0.02 µM,0.31
same,relative viability,[4]; first compound 0.06325 µM,0.32
same,relative viability,[4]; first compound 0.2 µM,0.305
same,relative viability,[4]; first compound 2 µM,0.3
NCI-H1975,relative viability,[1]; first compound 0.02 µM,0.285
same,relative viability,[1]; first compound 0.2 µM,0.291
same,relative viability,[1]; first compound 0.6325 µM,0.363
same,relative viability,[1]; first compound 2 µM,0.287
same,relative viability,[2]; first compound 0.02 µM,1.22
same,relative viability,[2]; first compound 0.2 µM,1.09
same,relative viability,[2]; first compound 0.6325 µM,1.06
same,relative viability,[2]; first compound 2 µM,0.855
same,relative viability,[3]; first compound 0.02 µM,0.629
same,relative viability,[3]; first compound 0.06325 µM,0.605
same,relative viability,[3]; first compound 0.2 µM,0.52
same,relative viability,[3]; first compound 2 µM,0.725
same,relative viability,[4]; first compound 0.02 µM,0.295
same,relative viability,[4]; first compound 0.06325 µM,0.279
same,relative viability,[4]; first compound 0.2 µM,0.306
same,relative viability,[4]; first compound 2 µM,0.289
RERF-LC-KJ,relative viability,[1]; first compound 0.02 µM,0.6
same,relative viability,[1]; first compound 0.2 µM,0.64
same,relative viability,[1]; first compound 0.6325 µM,0.607
same,relative viability,[1]; first compound 2 µM,0.484
same,relative viability,[2]; first compound 0.02 µM,0.911
same,relative viability,[2]; first compound 0.2 µM,0.974
same,relative viability,[2]; first compound 0.6325 µM,0.951
same,relative viability,[2]; first compound 2 µM,0.935
same,relative viability,[3]; first compound 0.02 µM,1.13
same,relative viability,[3]; first compound 0.06325 µM,1.02
same,relative viability,[3]; first compound 0.2 µM,0.997
same,relative viability,[3]; first compound 2 µM,0.912
same,relative viability,[4]; first compound 0.02 µM,0.509
same,relative viability,[4]; first compound 0.06325 µM,0.463
same,relative viability,[4]; first compound 0.2 µM,0.483
same,relative viability,[4]; first compound 2 µM,0.449
